These results are taken from publication PMC3632601, “Polyacetylenes from Notopterygium incisum–New Selective Partial Agonists of Peroxisome Proliferator-Activated Receptor-Gamma” (PLoS ONE, 2013).

Where “and” joins values, the source holds several entries; their conditions need not be identical. Equal values may be shown once. Entries after “also recorded” stand apart in the source; their conditions may differ.

One assay has as its target T1, human PPARα (Homo sapiens, UniProt Q07869).
T1 construct: expressed in transfected cells; host or cells: HEK-293
T1 sequence (Q07869 1-468): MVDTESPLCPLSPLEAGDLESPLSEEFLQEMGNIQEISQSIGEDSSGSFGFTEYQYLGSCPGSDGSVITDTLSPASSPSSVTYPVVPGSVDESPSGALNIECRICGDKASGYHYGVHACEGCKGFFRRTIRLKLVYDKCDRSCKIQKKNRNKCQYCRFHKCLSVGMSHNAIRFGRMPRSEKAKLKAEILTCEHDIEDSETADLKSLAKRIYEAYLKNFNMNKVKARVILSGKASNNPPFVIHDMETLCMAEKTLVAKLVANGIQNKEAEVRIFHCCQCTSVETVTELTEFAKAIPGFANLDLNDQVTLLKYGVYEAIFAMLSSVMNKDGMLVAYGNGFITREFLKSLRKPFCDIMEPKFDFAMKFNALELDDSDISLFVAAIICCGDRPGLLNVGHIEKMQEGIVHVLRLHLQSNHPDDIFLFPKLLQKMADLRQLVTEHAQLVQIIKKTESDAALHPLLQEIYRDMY
In words: PPARα luciferase reporter gene transactivation in transfected HEK-293 cells. The assay is classed as cell-based. The following applies: HEK-293, tk-PPREx3-luc reporter, 18 h, 0.1–30 µM; n.d. = not detected up to 30 µM; read-out: PPARα activation EC50. As for the experimental part:
(§1) HEK-293 cells (ATCC, USA) were cultured in DMEM with phenol red, supplemented with 100 U/ml benzylpenicillin, 100 µg/ml streptomycin, 2 mM L-glutamine, and 10% FBS. Cells were maintained in 75 cm^2 flasks containing 10 ml medium at 37°C and 5% CO2. The cells were seeded in 10 cm dishes at a density of 6 × 10^6 cells/dish, incubated for 18 h, and transfected by the calcium phosphate precipitation method with 4 µg of the reporter plasmid (tk-PPREx3-luc), 4 µg from the respective PPAR subtype expression plasmid, and 2 µg green fluorescent protein plasmid (pEGFP-N1, Clontech, Mountain View, CA) as internal control. After 6 h, the transfected cells were harvested and re-seeded (5 × 10^4 cells/well) in 96-well plates containing DMEM without phenol red, supplemented with 100 U/ml benzylpenicillin, 100 µg/ml streptomycin, 2 mM L-glutamine, and 5% charcoal-stripped FBS. The cells were further treated with the indicated extracts or compounds or the solvent vehicle and incubated for 18 h. The medium was then discarded and the cells were lysed with a reporter lysis buffer (E3971, Promega, Madison, USA). Luciferase activity of the cell lysates was evaluated using a GeniosPro plate reader (Tecan, Grödig, Austria). The luminescence signals obtained from the luciferase activity measurements were normalized to the EGFP-derived fluorescence, to account for differences in the transfection efficiency or cell number.
For orientation: A reporter such as luciferase makes a cellular process visible.
For `C=C[C@@H](O)C#CC#C[C@H](/C=C\CCCCCCC)OC(C)=O` [compound 1, 3R,8S,9Z-3-hydroxyheptadeca-1,9-diene-4,6-diyne-8-yl acetate], the EC50 was > 30 µM.
The same measure, in the same setting: the value for `C=C[C@@H](O)/C=C/C#C[C@@H](O)/C=C\CCCCCCC` [compound 4, 3R,4E,8S,9Z-heptadeca-1,4,9-triene-6-yne-3,8-diol] was > 30 µM; that for `C=C[C@@H](O)C#CC#C[C@@H](O)/C=C\CCCCCCC` [compound 2, 3R,8S,9Z-heptadeca-1,9-diene-4,6-diyne-3,8-diol] was > 30 µM.

In the next assay the target is T2, human PPARβ/δ (Homo sapiens, UniProt Q03181).
T2 construct: expressed in transfected cells; host or cells: HEK-293
T2 sequence (Q03181 1-441): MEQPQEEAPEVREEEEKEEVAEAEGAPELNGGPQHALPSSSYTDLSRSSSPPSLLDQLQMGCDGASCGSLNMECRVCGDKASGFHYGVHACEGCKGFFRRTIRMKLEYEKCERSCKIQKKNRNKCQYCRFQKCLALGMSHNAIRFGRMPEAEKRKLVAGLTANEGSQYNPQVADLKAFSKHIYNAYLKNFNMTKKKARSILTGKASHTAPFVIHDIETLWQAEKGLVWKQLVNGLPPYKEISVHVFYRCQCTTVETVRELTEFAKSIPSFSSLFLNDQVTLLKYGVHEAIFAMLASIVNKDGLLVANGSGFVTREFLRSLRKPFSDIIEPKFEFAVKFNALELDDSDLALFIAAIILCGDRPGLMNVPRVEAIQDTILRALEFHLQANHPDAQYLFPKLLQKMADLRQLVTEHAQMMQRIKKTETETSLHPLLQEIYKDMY
In words: PPARβ/δ luciferase reporter gene transactivation in transfected HEK-293 cells. In kind it is cell-based. The following applies: HEK-293, tk-PPREx3-luc reporter, 18 h, 0.1–30 µM; n.d. = not detected up to 30 µM; read-out: PPARβ/δ activation EC50. As for the experimental part: as §1
Regarding `C=C[C@@H](O)C#CC#C[C@H](/C=C\CCCCCCC)OC(C)=O` [compound 1, 3R,8S,9Z-3-hydroxyheptadeca-1,9-diene-4,6-diyne-8-yl acetate], the EC50 was > 30 µM.
With `C=C[C@@H](O)/C=C/C#C[C@@H](O)/C=C\CCCCCCC` [compound 4, 3R,4E,8S,9Z-heptadeca-1,4,9-triene-6-yne-3,8-diol], the EC50 was > 30 µM.
The same measure, in the same setting: the value for `C=C[C@@H](O)C#CC#C[C@@H](O)/C=C\CCCCCCC` [compound 2, 3R,8S,9Z-heptadeca-1,9-diene-4,6-diyne-3,8-diol] was > 30 µM.

The target in a further assay is T3, human PPARγ ligand-binding domain (LBD) (Homo sapiens, UniProt P37231).
T3 construct: purchased Invitrogen
T3 sequence (P37231 238-503 limits assumed): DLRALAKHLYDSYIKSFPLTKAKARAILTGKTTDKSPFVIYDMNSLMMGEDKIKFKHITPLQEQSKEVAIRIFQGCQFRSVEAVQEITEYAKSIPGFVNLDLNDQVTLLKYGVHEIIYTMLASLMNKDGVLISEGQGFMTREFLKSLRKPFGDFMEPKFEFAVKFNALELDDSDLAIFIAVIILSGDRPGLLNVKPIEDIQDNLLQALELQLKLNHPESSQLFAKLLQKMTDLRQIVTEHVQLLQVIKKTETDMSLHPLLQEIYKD
In words: LanthaScreen TR-FRET PPARγ competitive binding assay. The following applies: purified human PPARγ-LBD, 6 h incubation, Cheng-Prusoff from IC50.
Protocol: The LanthaScreen® time-resolved fluorescence resonance energy transfer (TR-FRET) PPARγ competitive binding assay (Invitrogen, Lofer, Austria) was performed according to the manufacturer’s protocol. The test compounds dissolved in DMSO or the blank solvent vehicle (DMSO) were incubated together with the human PPARγ ligand-binding domain (LBD) tagged with GST, a terbium-labeled anti-GST antibody, and a fluorescently labeled PPAR ligand (Fluormone Pan-PPAR Green, Invitrogen). In this assay, the fluorescently labeled ligand is binding to the human PPARγ LBD, which brings it in close spatial proximity to the terbium-labeled anti-GST antibody. Excitation of the terbium at 340 nm results in energy transfer (FRET) and partial excitation of the fluorescently labeled PPAR ligand, followed by emission at 520 nm. Test-compounds binding to the human PPARγ LBD are competing with the fluorescently labeled ligand and displacing it, resulting in a decrease of the FRET signal. […] All measurements were performed with a GeniosPro plate reader (Tecan, Grödig, Austria).
One-way analysis of variance (ANOVA) with Bonferroni post hoc test, or two-tailed paired t-test was used to determine statistical significance. […]
What is called Ki is a measure of affinity in units of concentration, obtained from inhibition or displacement. Low values mean a stronger hold on the target, high ones a looser hold on the target. Consider `C=C[C@@H](O)C#CC#C[C@@H](O)/C=C\CCCCCCC` [compound 2, 3R,8S,9Z-heptadeca-1,9-diene-4,6-diyne-3,8-diol], for which the inhibition constant Ki was 3.07 µM and 3.1 µM.

A further assay relates to 3T3-L1 preadipocytes. In words: Adipogenicity: 3T3-L1 preadipocyte differentiation, Oil Red O staining. The assay is classed as cell-based. The following applies: 10 µM, with 1 µg/ml insulin, compared with pioglitazone 10 µM; listed as falcarindiol. As for the experimental part: 3T3-L1 preadipocytes (ATCC, USA) were propagated in DMEM supplemented with 10% calf serum. […]. The medium was renewed every two days until day 8. For an estimate of lipid accumulation, Oil Red O staining was performed. For this, cells were fixed in 10% formaldehyde for 1 h and stained with Oil Red O for 10 min. After washing off excessive dye, bound dye was solubilized with 100% isopropanol and photometrically quantified at 550 nm. For better appreciation of the adipogenic potential of the investigated PPARγ agonists, a subset of preadipocytes was treated according to a common standard differentiation protocol (2 days in DMEM/10% FBS/500 µM IBMX/500 nM dexamethasone and 1 µg/mL insulin (MDI), followed by 2 days in DMEM/10% FBS/1 µg/ml insulin and 6 days in DMEM/10% FBS).
Figure 4 Assessment of adipogenicity and glucose uptake-enhancing properties of falcarindiol. […]; containing 10% FBS, 500 µM IBMX, 500 nM dexamethasone, and 1 µg/ml insulin) as a positive control. For an estimate of accumulated lipids, and thus for the adipogenic potential of the test compounds, Oil Red O staining and photometric quantification at 550 nm was performed. […] (B) 3T3-L1 mature adipocytes were incubated with falcarindiol (10 µM) or solvent vehicle (0.1% DMSO) for 48 h and 2-deoxy-D-(1H^3)-glucose cellular uptake was determined for 10 min in the presence or absence (basal uptake) of insulin (500 pM). […]
Consider `C=C[C@@H](O)C#CC#C[C@@H](O)/C=C\CCCCCCC` [compound 2, 3R,8S,9Z-heptadeca-1,9-diene-4,6-diyne-3,8-diol], for which the “3T3-L1 adipocyte differentiation (lipid accumulation, Oil Red O)” value is given as “induced 3T3-L1 preadipocyte differentiation; also recorded: induced the differentiation to adipocytes as expected, although to a smaller extent than pioglitazone”.

The test system of the next assay is 3T3-L1 adipocytes. In words: 2-Deoxy-D-(1H^3)-glucose uptake in differentiated 3T3-L1 adipocytes. The assay is classed as cell-based. The note with it: 10 µM for 48 h, insulin 500 pM, vs vehicle, listed as falcarindiol. As for the experimental part: Confluent 3T3-L1 preadipocytes (ATCC, USA) were differentiated (day 0) into mature adipocytes for 10 days (2 days in DMEM supplemented with 10% FBS, […], 1 µg/ml insulin and 500 nM dexamethasone followed by 2 days in DMEM/10% FBS/1 µg/ml insulin and 6 days in DMEM/10% FBS), and incubated with the test compounds (10 µM) or 0.1% DMSO as vehicle control for 48 h at 37°C. Before the experiment, cells were incubated for 4 h in DMEM/0.1% BSA followed by 1 h in KRH/BSA buffer (50 mM HEPES, 136 mM NaCl, 23.5 mM KCl, 1.25 mM MgSO4, 1.25 mM CaCl2 and 0.1% BSA). […] The glucose uptake rate was determined by liquid scintillation counting (Perkin Elmer, Waltham, MA, USA) of cell lysates (20 mM HEPES, 1% Igepal CA-630), and normalized to protein content assessed by the Bradford protein assay.
Figure 4 Assessment of adipogenicity and glucose uptake-enhancing properties of falcarindiol. […] For an estimate of accumulated lipids, and thus for the adipogenic potential of the test compounds, Oil Red O staining and photometric quantification at 550 nm was performed. […] (B) 3T3-L1 mature adipocytes were incubated with falcarindiol (10 µM) or solvent vehicle (0.1% DMSO) for 48 h and 2-deoxy-D-(1H^3)-glucose cellular uptake was determined for 10 min in the presence or absence (basal uptake) of insulin (500 pM). […]
On to `C=C[C@@H](O)C#CC#C[C@@H](O)/C=C\CCCCCCC` [compound 2, 3R,8S,9Z-heptadeca-1,9-diene-4,6-diyne-3,8-diol], for which the insulin-mediated glucose uptake entry is listed as “significantly enhanced”.

Another assay deals with T4, human PPARγ (Homo sapiens, UniProt P37231).
T4 sequence (P37231 1-477 isoform P37231-2): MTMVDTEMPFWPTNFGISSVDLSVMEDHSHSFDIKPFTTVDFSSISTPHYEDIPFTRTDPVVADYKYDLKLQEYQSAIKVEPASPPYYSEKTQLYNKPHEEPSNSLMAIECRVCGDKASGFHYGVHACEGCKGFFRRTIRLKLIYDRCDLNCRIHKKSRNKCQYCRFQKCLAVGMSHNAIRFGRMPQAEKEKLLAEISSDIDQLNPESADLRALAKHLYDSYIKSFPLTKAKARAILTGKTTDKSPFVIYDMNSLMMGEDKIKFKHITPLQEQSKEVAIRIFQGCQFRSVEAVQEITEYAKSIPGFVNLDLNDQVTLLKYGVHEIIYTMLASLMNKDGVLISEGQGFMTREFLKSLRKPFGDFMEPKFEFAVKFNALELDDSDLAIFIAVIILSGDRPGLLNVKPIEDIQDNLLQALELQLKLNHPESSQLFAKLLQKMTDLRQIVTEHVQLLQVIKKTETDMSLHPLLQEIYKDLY
In words: PPARγ luciferase reporter gene transactivation in transfected HEK-293 cells.
Details: not given
Turning to `C=C[C@@H](O)C#CC#C[C@H](/C=C\CCCCCCC)OC(C)=O` [compound 1, 3R,8S,9Z-3-hydroxyheptadeca-1,9-diene-4,6-diyne-8-yl acetate], the EC50 came to 3.59 µM.
Same read-out and setting: the value for `C=C[C@@H](O)/C=C/C#C[C@@H](O)/C=C\CCCCCCC` [compound 4, 3R,4E,8S,9Z-heptadeca-1,4,9-triene-6-yne-3,8-diol] was 4.58 µM; that for `C=C[C@@H](O)C#CC#C[C@@H](O)/C=C\CCCCCCC` [compound 2, 3R,8S,9Z-heptadeca-1,9-diene-4,6-diyne-3,8-diol] was 3.29 µM.

Still in this assay, the particulars now being: HEK-293, 18 h, fold induction above vehicle control (DMSO 0.1%).
`C=C[C@@H](O)C#CC#C[C@H](/C=C\CCCCCCC)OC(C)=O` [compound 1, 3R,8S,9Z-3-hydroxyheptadeca-1,9-diene-4,6-diyne-8-yl acetate]: the “PPARγ activation maximal fold activation” value came out at 2.36 fold.
Still for that read-out and setting: the value for `C=C[C@@H](O)/C=C/C#C[C@@H](O)/C=C\CCCCCCC` [compound 4, 3R,4E,8S,9Z-heptadeca-1,4,9-triene-6-yne-3,8-diol] was 2.29 fold; that for `C=C[C@@H](O)C#CC#C[C@@H](O)/C=C\CCCCCCC` [compound 2, 3R,8S,9Z-heptadeca-1,9-diene-4,6-diyne-3,8-diol] was 3.26 fold.

Still in this assay, the particulars now being: co-treatment with 1 µM pioglitazone, 18 h, maximal block.
In the case of `C=C[C@@H](O)C#CC#C[C@@H](O)/C=C\CCCCCCC` [compound 2, 3R,8S,9Z-heptadeca-1,9-diene-4,6-diyne-3,8-diol], the “share of the stimulating effect of pioglitazone blocked by co-treatment” value is reported as 70–80%.

The same assay, now with this note: falcarindiol 10 µM, T0070907 1 µM.
Consider `C=C[C@@H](O)C#CC#C[C@@H](O)/C=C\CCCCCCC` [compound 2, 3R,8S,9Z-heptadeca-1,9-diene-4,6-diyne-3,8-diol], for which the “stimulating effect upon co-treatment with PPARγ antagonist T0070907” value is reported as “blocked”.
